We go through 19 compounds from ChEMBL document CHEMBL2203052, “Synthesis and antimycobacterial activity of calpinactam derivatives” (2012).

In the test the test system is Mycolicibacterium smegmatis. The test can be described thus: Antimycobacterial activity against Mycobacterium smegmatis by liquid microdilution method. The format is functional. A general note: In broth dilution the organism is exposed to a series of concentrations in liquid medium.

In brackets after ≈: the same amount, converted by molar mass.

`CC[C@H](C)[C@@H](NC(=O)[C@@H](CCC(=O)O)NC(=O)[C@H](Cc1cnc[nH]1)NC(=O)[C@H](CC(C)C)NC(=O)[C@@H](Cc1ccccc1)NC(C)=O)C(=O)N[C@H]1CCCCNC1=O` registered an MIC greater than 50 µg/mL.

`CC[C@H](C)[C@@H](NC(=O)[C@@H](CCC(=O)O)NC(=O)[C@H](Cc1cnc[nH]1)NC(=O)[C@H](CC(C)C)NC(=O)[C@H](N)Cc1ccccc1)C(=O)N[C@H]1CCCCNC1=O` [CALPINACTAM]: 0.78 µg/mL (≈ 1.02 µM) was the least that counted as inhibitory (MIC).

`CC[C@H](C)[C@@H](NC(=O)[C@@H](CCC(=O)O)NC(=O)[C@H](Cc1cnc[nH]1)NC(=O)[C@H](CC(C)C)NC(=O)[C@@H](C)N)C(=O)N[C@H]1CCCCNC1=O` had an MIC greater than 50 µg/mL.

For `CC[C@H](C)[C@@H](NC(=O)[C@H](CCC(=O)O)NC(=O)[C@H](Cc1cnc[nH]1)NC(=O)[C@H](CC(C)C)NC(=O)[C@H](N)Cc1ccccc1)C(=O)N[C@H]1CCCCNC1=O`, the MIC was greater than 50 µg/mL.

Compound `CC[C@H](C)[C@@H](NC(=O)[C@@H](CCC(=O)O)NC(=O)[C@H](Cc1cnc[nH]1)NC(=O)[C@@H](CC(C)C)NC(=O)[C@H](N)Cc1ccccc1)C(=O)N[C@H]1CCCCNC1=O` registered an MIC greater than 50 µg/mL.

On to `CC[C@H](C)[C@@H](NC(=O)[C@@H](CCC(=O)O)NC(=O)[C@H](C)NC(=O)[C@H](CC(C)C)NC(=O)[C@H](N)Cc1ccccc1)C(=O)N[C@H]1CCCCNC1=O`, for which the MIC was greater than 50 µg/mL.

The compound `CC[C@H](C)[C@@H](NC(=O)[C@@H](CCC(=O)O)NC(=O)[C@H](Cc1cnc[nH]1)NC(=O)[C@H](CC(C)C)NC(=O)[C@H](N)Cc1ccccc1)C(=O)N[C@@H]1CCCCNC1=O` gave an MIC greater than 50 µg/mL.

`CC(C)C[C@H](NC(=O)[C@H](N)Cc1ccccc1)C(=O)N[C@@H](Cc1cnc[nH]1)C(=O)N[C@H](CCC(=O)O)C(=O)N[C@H](C)C(=O)N[C@H]1CCCCNC1=O` gave an MIC greater than 50 µg/mL.

On to `CC[C@H](C)[C@H](NC(=O)[C@@H](CCC(=O)O)NC(=O)[C@H](Cc1cnc[nH]1)NC(=O)[C@H](CC(C)C)NC(=O)[C@H](N)Cc1ccccc1)C(=O)N[C@H]1CCCCNC1=O`, for which the MIC is greater than 50 µg/mL.

The compound `CC[C@H](C)[C@@H](NC(=O)[C@@H](CCC(=O)O)NC(=O)[C@H](Cc1cnc[nH]1)NC(=O)[C@H](CC(C)C)NC(=O)[C@H](N)Cc1ccccc1)C(=O)N[C@H]1CCCNC1=O` yielded an MIC greater than 50 µg/mL.

`CC[C@H](C)[C@@H](NC(=O)[C@@H](CCC(=O)O)NC(=O)[C@H](Cc1cnc[nH]1)NC(=O)[C@H](CC(C)C)NC(=O)[C@H](N)Cc1ccccc1)C(=O)N[C@@H](C)C(=O)O` had an MIC greater than 50 µg/mL.

Compound `CC[C@H](C)[C@@H](NC(=O)[C@@H](CCC(=O)O)NC(=O)[C@H](Cc1cnc[nH]1)NC(=O)[C@H](CC(C)C)NC(=O)[C@H](N)Cc1ccccc1)C(=O)O` had an MIC greater than 50 µg/mL.

On to `CC[C@H](C)[C@@H](NC(=O)[C@@H](CCC(=O)O)NC(=O)[C@H](Cc1cnc[nH]1)NC(=O)[C@H](C)NC(=O)[C@H](N)Cc1ccccc1)C(=O)N[C@H]1CCCCNC1=O`, for which the MIC is greater than 50 µg/mL.

Consider `CC[C@H](C)[C@@H](NC(=O)[C@@H](CCC(=O)O)NC(=O)[C@H](Cc1cnc[nH]1)NC(=O)[C@H](CC(C)C)NC(=O)[C@H](N)Cc1ccccc1)C(=O)NC1CCCCCC1`, for which the MIC was greater than 50 µg/mL.

In turn, `CC[C@H](C)[C@@H](NC(=O)[C@@H](CCC(=O)O)NC(=O)[C@H](Cc1cnc[nH]1)NC(=O)[C@@H](N)CC(C)C)C(=O)N[C@H]1CCCCNC1=O` came in with an MIC greater than 50 µg/mL.

The compound `CC[C@H](C)[C@@H](NC(=O)[C@@H](CCC(=O)O)NC(=O)[C@@H](Cc1cnc[nH]1)NC(=O)[C@H](CC(C)C)NC(=O)[C@H](N)Cc1ccccc1)C(=O)N[C@H]1CCCCNC1=O` registered a minimal inhibitory concentration (MIC) greater than 50 µg/mL.

In turn, `CC[C@H](C)[C@@H](NC(=O)[C@@H](C)NC(=O)[C@H](Cc1cnc[nH]1)NC(=O)[C@H](CC(C)C)NC(=O)[C@H](N)Cc1ccccc1)C(=O)N[C@H]1CCCCNC1=O` yielded an MIC of 6.25 µg/mL (≈ 8.8 µM).

As to `CC[C@H](C)[C@@H](NC(=O)[C@@H](CCC(=O)O)NC(=O)[C@H](Cc1cnc[nH]1)NC(=O)[C@H](CC(C)C)NC(=O)[C@@H](N)Cc1ccccc1)C(=O)N[C@H]1CCCCNC1=O`, the MIC was greater than 50 µg/mL.

In turn, `CC[C@H](C)[C@@H](NC(=O)[C@@H](CCC(=O)O)NC(=O)[C@H](Cc1cnc[nH]1)NC(=O)[C@H](CC(C)C)NC(=O)[C@H](N)Cc1ccccc1)C(=O)N[C@@H](CCCCN)C(=O)O` returned a minimal inhibitory concentration (MIC) greater than 50 µg/mL.

Broadly, the MIC is the lowest concentration found to suppress growth. Read a low MIC as a more susceptible organism.
